Data published in ChEMBL document CHEMBL3259622, “Enhancing a CH-π Interaction to Increase the Affinity for 5-HT1A Receptors” (ACS Med Chem Lett, 2014).
Activity calls are given as the source filed them. No cut-off for these calls is given here.

target: T1, 5-hydroxytryptamine receptor 1A (Homo sapiens) (UniProt P08908); test: Displacement of [3H]-[…] from human recombinant 5HT1A receptor expressed in CHO cells assessed as residual activity at 1 uM after 60 mins by liquid scintillation counting analysis; assay type: cell-based
T1 sequence (whole entry): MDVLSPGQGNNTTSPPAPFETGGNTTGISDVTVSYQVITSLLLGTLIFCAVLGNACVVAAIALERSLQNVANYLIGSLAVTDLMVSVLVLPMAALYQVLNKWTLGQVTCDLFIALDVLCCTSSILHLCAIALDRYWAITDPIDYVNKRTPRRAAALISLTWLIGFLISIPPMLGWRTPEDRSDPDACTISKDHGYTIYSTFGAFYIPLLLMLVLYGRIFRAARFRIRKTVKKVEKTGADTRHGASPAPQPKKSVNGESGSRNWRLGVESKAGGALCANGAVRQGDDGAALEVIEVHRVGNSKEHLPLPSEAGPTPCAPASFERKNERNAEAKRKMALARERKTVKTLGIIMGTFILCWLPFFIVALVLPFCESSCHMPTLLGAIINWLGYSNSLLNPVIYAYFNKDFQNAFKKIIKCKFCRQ

Row | SMILES | Activity [%]
1 | O=C1c2ccccc2C(=O)N1CCN1CCN(c2ccc(Cl)cc2)CC1 | 97.4
2 | O=C1c2ccccc2C(=O)N1CCN1CCN(c2ccccc2)CC1 | 82
3 | Cc1ccc(N2CCN(CCN3C(=O)c4ccccc4C3=O)CC2)cc1 | 97
4 | O=C1c2ccccc2C(=O)N1CCN1CC=C(c2ccc(F)cc2)CC1 | 76.8
5 | Cc1ccc(C2=CCN(CCN3C(=O)c4ccccc4C3=O)CC2)cc1 | 80
6 | O=C1c2ccccc2C(=O)N1CCN1CCN(c2ccc(F)cc2)CC1 | 80.4
7 | O=C1c2ccccc2C(=O)N1CCN1CCN(c2cc(F)cc(F)c2)CC1 | 79.6

target: T2, 5-hydroxytryptamine receptor 1A (Rattus norvegicus) (UniProt P19327); test: Agonist activity at Wistar rat brain 5HT1A receptor assessed as inhibition of firing rate of dorsal raphe nucleus by electrophysiological analysis in presence of WAY-100635; assay type: tissue-based
T2 sequence (whole entry): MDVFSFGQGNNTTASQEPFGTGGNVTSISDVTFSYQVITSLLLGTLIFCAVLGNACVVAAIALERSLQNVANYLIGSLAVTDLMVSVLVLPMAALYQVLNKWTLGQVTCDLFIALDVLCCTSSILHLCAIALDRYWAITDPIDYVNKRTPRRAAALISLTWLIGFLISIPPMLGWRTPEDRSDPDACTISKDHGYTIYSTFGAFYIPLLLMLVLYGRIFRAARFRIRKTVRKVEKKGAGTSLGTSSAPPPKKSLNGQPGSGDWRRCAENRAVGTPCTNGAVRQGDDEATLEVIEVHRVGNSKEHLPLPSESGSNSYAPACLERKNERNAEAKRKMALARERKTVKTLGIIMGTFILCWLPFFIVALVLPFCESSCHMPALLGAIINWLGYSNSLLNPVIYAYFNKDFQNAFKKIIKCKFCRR

Row | SMILES | inhibition
8 | O=C(NCCN1CC=C(c2ccccc2)CC1)c1cnc2ccccc2n1 | inactive
9 | O=C(NCCN1CCN(c2cc(F)cc(F)c2)CC1)c1cnc2ccccc2n1 | inactive
10 | O=C(NCCN1CCN(c2ccccc2)CC1)c1cnc2ccccc2n1 | inactive
11 | Cc1cc(C)cc(C2=CCN(CCNC(=O)c3cnc4ccccc4n3)CC2)c1 | inactive
12 | Cc1cc(C)cc(N2CCN(CCNC(=O)c3cnc4ccccc4n3)CC2)c1 | inactive
13 | O=C(NCCN1CC=C(c2cc(F)cc(F)c2)CC1)c1cnc2ccccc2n1 | inactive

target: T3, 5-hydroxytryptamine receptor 1A (Rattus norvegicus, UniProt P19327); test: Agonist activity at Wistar rat brain 5HT1A receptor assessed as inhibition of firing rate of dorsal raphe nucleus by electrophysiological analysis; assay type: tissue-based
T3 sequence (P19327 whole entry): T2 sequence (whole entry)

Row | SMILES | IC50 [nM]
14 | O=C(NCCN1CC=C(c2ccccc2)CC1)c1cnc2ccccc2n1 | 460
15 | O=C(NCCN1CCN(c2cc(F)cc(F)c2)CC1)c1cnc2ccccc2n1 | 1140
16 | O=C(NCCN1CCN(c2ccccc2)CC1)c1cnc2ccccc2n1 | 1680
17 | Cc1cc(C)cc(C2=CCN(CCNC(=O)c3cnc4ccccc4n3)CC2)c1 | 172
18 | Cc1cc(C)cc(N2CCN(CCNC(=O)c3cnc4ccccc4n3)CC2)c1 | 383
19 | O=C(NCCN1CC=C(c2cc(F)cc(F)c2)CC1)c1cnc2ccccc2n1 | 95

target: T4, 5-hydroxytryptamine receptor 1A (Homo sapiens, UniProt P08908); test: Displacement of [3H]-[…] from human recombinant 5HT1A receptor expressed in CHO cells after 60 mins by liquid scintillation counting analysis; assay type: cell-based
T4 sequence (P08908 whole entry): T1 sequence (whole entry)

Row | SMILES | Ki [nM]
20 | O=C1c2ccccc2C(=O)N1CCN1CC=C(c2ccc(Cl)cc2)CC1 | 631
21 | O=C(NCCN1CCN(c2ccc(F)cc2)CC1)c1cnc2ccccc2n1 | 63.3
22 | Cc1cc(C)cc(C2=CCN(CCN3C(=O)c4ccccc4C3=O)CC2)c1 | 105
23 | O=C1c2ccccc2C(=O)N1CCN1CC=C(c2cc(F)cc(F)c2)CC1 | 425
24 | O=C(NCCN1CC=C(c2ccc(Cl)cc2)CC1)c1cnc2ccccc2n1 | 9.3
25 | O=C1c2ccccc2C(=O)N1CCN1CC=C(c2ccccc2)CC1 | 706
26 | O=C(NCCN1CCN(c2ccc(F)cc2)CC1)c1ccc2ccccc2c1 | 54.3
27 | O=C(NCCN1CC=C(c2ccc(F)cc2)CC1)c1cnc2ccccc2n1 | 14
28 | Cc1cc(C)cc(C2=CCN(CCNC(=O)c3ccc4ccccc4c3)CC2)c1 | 8.06
29 | O=C(NCCN1CCN(c2ccc(Cl)cc2)CC1)c1ccc2ccccc2c1 | 50.7
30 | O=C(NCCN1CC=C(c2cc(F)cc(F)c2)CC1)c1ccc2ccccc2c1 | 7.29
31 | O=C(NCCN1CC=C(c2ccccc2)CC1)c1cnc2ccccc2n1 | 3.76
32 | Cc1ccc(C2=CCN(CCNC(=O)c3ccc4ccccc4c3)CC2)cc1 | 31.6
33 | O=C(NCCN1CC=C(c2ccc(F)cc2)CC1)c1ccc2ccccc2c1 | 33.5
34 | Cc1ccc(C2=CCN(CCNC(=O)c3cnc4ccccc4n3)CC2)cc1 | 7.55
35 | Cc1ccc(N2CCN(CCNC(=O)c3ccc4ccccc4c3)CC2)cc1 | 221
36 | O=C(NCCN1CCN(c2cc(F)cc(F)c2)CC1)c1cnc2ccccc2n1 | 11.1
37 | O=C(NCCN1CC=C(c2ccc(Cl)cc2)CC1)c1ccc2ccccc2c1 | 42.5
38 | O=C(NCCN1CCN(c2ccc(Cl)cc2)CC1)c1cnc2ccccc2n1 | 27
39 | O=C(NCCN1CCN(c2ccccc2)CC1)c1ccc2ccccc2c1 | 24.7
40 | O=C(NCCN1CC=C(c2ccccc2)CC1)c1ccc2ccccc2c1 | 6.1
41 | O=C(NCCN1CCN(c2ccccc2)CC1)c1cnc2ccccc2n1 | 30
42 | Cc1cc(C)cc(N2CCN(CCNC(=O)c3ccc4ccccc4c3)CC2)c1 | 21
43 | Cc1ccc(N2CCN(CCNC(=O)c3cnc4ccccc4n3)CC2)cc1 | 27.3
44 | Cc1cc(C)cc(C2=CCN(CCNC(=O)c3cnc4ccccc4n3)CC2)c1 | 1.1
45 | Cc1cc(C)cc(N2CCN(CCN3C(=O)c4ccccc4C3=O)CC2)c1 | 496
46 | Cc1cc(C)cc(N2CCN(CCNC(=O)c3cnc4ccccc4n3)CC2)c1 | 3.67
47 | O=C(NCCN1CC=C(c2cc(F)cc(F)c2)CC1)c1cnc2ccccc2n1 | 2.62
48 | O=C(NCCN1CCN(c2cc(F)cc(F)c2)CC1)c1ccc2ccccc2c1 | 28.9
